In article PMC10747602, “Dose Response, Dosimetric, and Metabolic Evaluations of Replacement PFAS Perfluoro-(2,5,8-trimethyl-3,6,9-trioxadodecanoic) Acid (HFPO-TeA)” (Toxics, 2023):
“And” between values parts separate entries of the source, which are not always exact repeats. Identical values can stand only once.

Test: Five-day oral gavage exposure: body weight, liver weights, clinical observations
Type: in vivo, Sprague Dawley rats
Conditions: for Body Weight Change / Liver Weight / Relative Liver Weight / Absolute Liver Weight / Body Weight Gain: 5 days
Procedure: The in vivo exposure study was performed under a contract to Jacobs Technology, Inc. (Dallas, TX, USA; EP-C-15-008) and BioSpyder Technologies, Inc. (Carlsbad, CA, USA; 68HE0B20P0250). Animal handling was subcontracted out and performed by Integrated Laboratory Systems (ILS, Morrisville, NC, USA). All procedures followed Animal Welfare Act Regulations 9 CFR 1A, 1–4, and animals were handled and treated according to the Guide for the Care and Use of Laboratory Animals. Male and female Sprague Dawley rats (n = 36/sex) were purchased from Charles River Laboratory (Raleigh, NC, USA) and allowed to acclimate for 7–10 days before initial dosing. Animals were assigned to groups using analysis of variance (ANOVA) to ensure the mean body weights of the groups were not statistically different. Same-sex pairs were housed in polycarbonate cages (23 cm × 44 cm × 21 cm) with hardwood bedding (Northeastern Products Corp., Warrensburg, NY, USA), changed twice per week. Rats were kept in rooms maintained between 20.0 and 25.0 °C and 30.0 and 70.0% humidity while exposed to a 12 h light–dark cycle. Certified Purina Pico Chow No. 5002 (Ralston Purina Co., St. Louis, MO, USA) and reverse osmosis (RO)-treated tap water (City of Durham, NC, USA) were available ad libitum. Rats were 8–10 weeks old at the time of dosing and weighed between 228 and 302 g (males) and 208 and 232 g (females).
Male and female rats (n = 4/sex, dose, and time point) were dosed by gavage (5 mL/kg bodyweight) once daily for five days with water (vehicle control) or HFPO-TeA at eight half-log dose levels ranging from 0.3 to 335.2 mg/kg/day (i.e., 0.3, 0.9, 2.3, 6.3, 17, 45.9, 124, and 335.2). The results reported here are part of a larger study, for which the main purpose was to use benchmark dose–response modeling of transcriptomic data to identify a gene set basis for the point of departure (POD).
Clinical observations were performed prior to first administration and at termination. Moribundity and mortality were assessed twice daily on weekdays and once daily on weekends. Animals found moribund were euthanized by carbon dioxide inhalation and death was confirmed by cervical dislocation.
Whole blood was collected from the retro-orbital plexus under isoflurane anesthesia 2 h following the first dose and by cardiac puncture 24 h after the last dosage. Blood was stored in anticoagulant potassium ethylenediaminetetraacetic acid (K3EDTA)-coated vacutainers, and then processed to isolate plasma via centrifugation. Animals were euthanized via carbon dioxide asphyxiation and subsequent exsanguination. Liver was collected, weighed, cubed, and divided into three aliquots. One aliquot of tissue was flash-frozen in liquid nitrogen and stored at −80 °C for analytical chemistry analyses. The remaining two aliquots were placed in RNALater and frozen for use in the companion transcriptomic study. Liver and plasma samples were received at the U.S. EPA Center for Computational Toxicology and Exposure, Advanced Analytical Chemistry Methods Branch in Research Triangle Park, North Carolina, USA, and stored at −80 °C prior to extraction.

[1] = 0.3 mg/kg/day, F, individual rats
[2] = 0.3 mg/kg/day, F, mean ± SD n=4
[3] = 0.3 mg/kg/day, M, individual rats
[4] = 0.3 mg/kg/day, M, mean ± SD n=4
[5] = 0.9 mg/kg/day, F, individual rats
[6] = 0.9 mg/kg/day, F, mean ± SD n=4
[7] = 0.9 mg/kg/day, M, individual rats
[8] = 0.9 mg/kg/day, M, mean ± SD n=4
[9] = 2.3 mg/kg/day, F, individual rats
[10] = 2.3 mg/kg/day, F, mean ± SD n=4
[11] = 2.3 mg/kg/day, M, individual rats
[12] = 2.3 mg/kg/day, M, mean ± SD n=4
[13] = 6.3 mg/kg/day, F, individual rats
[14] = 6.3 mg/kg/day, F, mean ± SD n=4
[15] = 6.3 mg/kg/day, M, individual rats
[16] = 6.3 mg/kg/day, M, mean ± SD n=4
[17] = 17 mg/kg/day, F, individual rats
[18] = 17 mg/kg/day, M, individual rats

SMILES: O=C(O)C(F)(OC(F)(F)C(F)(OC(F)(F)C(F)(OC(F)(F)C(F)(F)C(F)(F)F)C(F)(F)F)C(F)(F)F)C(F)(F)F (centres unmarked) [HFPO-TeA, perfluoro-(2,5,8-trimethyl-3,6,9-trioxadodecanoic) acid]
- Body Weight Change [1]: 11.3 g and 8.5 g and 1.0 g and 5.1 g
- Liver Weight [1]: 10.2929 g and 10.0087 g and 10.5040 g and 10.1866 g
- Relative Liver Weight [1]: 4.458 g% and 4.431 g% and 4.573 g% and 4.489 g%
- Absolute Liver Weight [2]: 10.25 ± 0.2070 g
- Body Weight Gain [2]: 6.5 ± 4.4 g
- Relative Liver Weight [2]: 4.488 ± 0.062 g%
- Body Weight Change [3]: 28.2 g and 40.1 g and 48.5 g and 32.0 g
- Liver Weight [3]: 13.9494 g and 16.3796 g and 15.4580 g and 15.2495 g
- Relative Liver Weight [3]: 4.953 g% and 4.616 g% and 4.795 g% and 4.445 g%
- Absolute Liver Weight [4]: 15.2591 ± 1.0017 g
- Body Weight Gain [4]: 37.2 ± 9.0 g
- Relative Liver Weight [4]: 4.702 ± 0.220 g%
- Body Weight Change [5]: 8.6 g and 18.4 g and 10.4 g and 11.3 g
- Liver Weight [5]: 12.6621 g and 11.3910 g and 11.9531 g and 11.5466 g
- Relative Liver Weight [5]: 5.327 g% and 5.016 g% and 5.192 g% and 4.809 g%
- Absolute Liver Weight [6]: 11.8882 ± 0.5678 g
- Body Weight Gain [6]: 12.2 ± 4.3 g
- Relative Liver Weight [6]: 5.086 ± 0.224 g%
- Body Weight Change [7]: 46.0 g and 38.3 g and 37.4 g and 36.7 g
- Liver Weight [7]: 16.7977 g and 16.8117 g and 16.3850 g and 18.5738 g
- Relative Liver Weight [7]: 5.241 g% and 5.318 g% and 5.059 g% and 5.544 g%
- Absolute Liver Weight [8]: 17.1421 ± 0.9748 g
- Body Weight Gain [8]: 39.6 ± 4.3 g
- Relative Liver Weight [8]: 5.291 ± 0.201 g%
- Body Weight Change [9]: 21.5 g and 10.9 g and 8.5 g and 8.3 g
- Liver Weight [9]: 12.3341 g and 12.8755 g and 12.0585 g and 12.4504 g
- Relative Liver Weight [9]: 5.372 g% and 5.236 g% and 5.345 g% and 5.231 g%
- Absolute Liver Weight [10]: 12.4296 ± 0.3397 g
- Body Weight Gain [10]: 12.3 ± 6.2 g
- Relative Liver Weight [10]: 5.296 ± 0.073 g%
- Body Weight Change [11]: 37.5 g and 45.8 g and 38.2 g and 34.6 g
- Liver Weight [11]: 17.9851 g and 19.2395 g and 20.9175 g and 18.7875 g
- Relative Liver Weight [11]: 5.558 g% and 5.913 g% and 6.285 g% and 5.910 g%
- Absolute Liver Weight [12]: 19.2324 ± 1.2374 g
- Body Weight Gain [12]: 39.0 ± 4.8 g
- Relative Liver Weight [12]: 5.916 ± 0.297 g%
- Body Weight Change [13]: -11.8 g and -21.3 g and -2.2 g and -35.7 g
- Liver Weight [13]: 10.2774 g and 9.4969 g and 12.9764 g and 9.4275 g
- Relative Liver Weight [13]: 4.807 g% and 5.025 g% and 6.242 g% and 5.243 g%
- Absolute Liver Weight [14]: 10.5446 ± 1.6664 g
- Body Weight Gain [14]: -17.8 ± 14.3 g
- Relative Liver Weight [14]: 5.329 ± 0.634 g%
- Body Weight Change [15]: 27.5 g and 43.2 g and 31.7 g and 24.7 g
- Liver Weight [15]: 19.3187 g and 25.7576 g and 22.4062 g and 22.3377 g
- Relative Liver Weight [15]: 6.254 g% and 7.468 g% and 6.965 g% and 7.243 g%
- Absolute Liver Weight [16]: 22.4551 ± 2.6306 g
- Body Weight Gain [16]: 31.8 ± 8.1 g
- Relative Liver Weight [16]: 6.983 ± 0.527 g%
- Body Weight Change [17]: -62.7 g and -52.1 g and -49.6 g and -56.3 g
- Liver Weight [17]: 9.7114 g and 9.8972 g and 9.1738 g and 9.9260 g
- Relative Liver Weight [17]: 6.002 g% and 5.659 g% and 5.567 g% and 5.958 g%
- Absolute Liver Weight (17 mg/kg/day, F, mean ± SD n=4): 9.6771 ± 0.3488 g
- Body Weight Gain (17 mg/kg/day, F, mean ± SD n=4): -55.2 ± 5.7 g
- Relative Liver Weight (17 mg/kg/day, F, mean ± SD n=4): 5.796 ± 0.216 g%
- Body Weight Change [18]: -36.3 g and -50.7 g and -59.7 g and -59.2 g
- Liver Weight [18]: 13.4969 g and 13.8697 g and 12.4995 g and 13.1122 g
- Relative Liver Weight [18]: 5.386 g% and 5.593 g% and 5.511 g% and 5.909 g%
- Absolute Liver Weight (17 mg/kg/day, M, mean ± SD n=4): 13.2446 ± 0.5851 g
- Body Weight Gain (17 mg/kg/day, M, mean ± SD n=4): -51.5 ± 10.9 g
- Relative Liver Weight (17 mg/kg/day, M, mean ± SD n=4): 5.600 ± 0.223 g%
- Abnormal clinical observations (female rats, 6.3 mg/kg/day dose group): piloerection and thinness
- Abnormal clinical observations (in addition) (female rats, 17 mg/kg/day dose group): coldness to touch and hunching
- Abnormal clinical observations (alongside previous signs) (female rats, 45.9 mg/kg/day): Abnormal breathing
- Abnormal clinical observations (female rats, 124 mg/kg/day): decreased movement and lethargy
- Abnormal clinical observations (male rats, 17 and 45.9 mg/kg/day dose groups): lethargy, piloerection, thinness, hunching, coldness to touch, abnormal breathing, and decreased movement
